Converted amounts (≈) assume the structure as drawn. Where two headings read alike, the source gives them in different places.
Key:
Assay type in all cases: cell-based
[1] = tested on: Micrococcus luteus ATCC9341; test: MIC, Micrococcus luteus ATCC9341
From the text: (§1) The minimum inhibitory concentration (MIC) of compounds (1) according to the present invention is illustrated in Table 1.

[2] = tested on: Staph. aureus MS353C36; test: MIC, Staph. aureus MS353C36 (erythromycin resistant strain); conditions: Staphylococcus aureus
From the text: as §1

[3] = tested on: Strept. agalactiae 1020; test: MIC, Strept. agalactiae 1020; conditions: Streptococcus agalactiae
From the text: as §1

[4] = tested on: Staph. aureus MS353 AO; test: MIC, Staph. aureus MS353 AO; conditions: Staphylococcus aureus, MS353AO
From the text: as §1

[5] = tested on: Enterococcus faecalis 1501; test: MIC, Enterococcus faecalis 1501
From the text: as §1

[6] = tested on: Staph. aureus 0127; test: MIC, Staph. aureus 0127; conditions: Staphylococcus aureus
From the text: as §1

[7] = tested on: Strept. pyogenes 1022; test: MIC, Strept. pyogenes 1022; conditions: Streptococcus pyogenes
From the text: as §1

[8] = tested on: Strept. pyogenes N.Y.5; test: MIC, Strept. pyogenes N.Y.5; conditions: Streptococcus pyogenes
From the text: as §1

[9] = tested on: Bacillus subtilis ATCC6633; test: MIC, Bacillus subtilis ATCC6633
From the text: as §1

[10] = tested on: Staph. aureus 0119; test: MIC, Staph. aureus 0119; conditions: Staphylococcus aureus
From the text: as §1

[11] = tested on: Coryne. diphtheriae P.W.8; test: MIC, Coryne. diphtheriae P.W.8; conditions: Corynebacterium diphtheriae
From the text: as §1

[12] = tested on: Staph. aureus ATCC6538P; test: MIC, Staph. aureus ATCC6538P; conditions: Staphylococcus aureus
From the text: as §1

[13] = tested on: Staph. aureus MS353; test: MIC, Staph. aureus MS353; conditions: Staphylococcus aureus
From the text: as §1

[14] = tested on: Staph. aureus Smith; test: MIC, Staph. aureus Smith; conditions: Staphylococcus aureus
From the text: as §1

[15] = tested on: E. coli NIHJ JC-2; test: MIC, E. coli NIHJ JC-2; conditions: Escherichia coli, NIHJJC2
From the text: as §1

[16] = tested on: Staph. aureus 0126; test: MIC, Staph. aureus 0126; conditions: Staphylococcus aureus
From the text: as §1

[17] = Staph. aureus MS353, read-out: MIC
[18] = Staph. aureus Smith, read-out: MIC
[19] = Staph. aureus 0126, read-out: MIC

SMILES | MIC [1] [µg/mL] | MIC [2] [µg/mL] | MIC [3] [µg/mL] | MIC [4] [µg/mL] | MIC [5] [µg/mL] | MIC [6] [µg/mL] | MIC [7] [µg/mL] | MIC [8] [µg/mL] | MIC [9] [µg/mL] | MIC [10] [µg/mL] | MIC [11] [µg/mL] | MIC [12] [µg/mL] | MIC [13, 17] [µg/mL] | MIC [14, 18] [µg/mL] | MIC [15] [µg/mL] | MIC [16, 19] [µg/mL] | MIC [16]; 0126 [µg/mL] | MIC ([13]; MS353) [µg/mL] | MIC [14] [µg/mL]
C=C1CC(C)OC(OCC2/C=C(C)/C=C/C(=O)C(C)CC(C)C(OC3OC(C)C(O)C(N(C)C)C3O)C(C)C(OC(=O)N(C)C)CC(=O)OC2CC)C1OC (stereo not shown) [Compound 6, 4"-deoxy-3"-demethoxy-3"-methylene-3-0-dimethylcarbamoyl-19-deformyldesmycosin] | 0.2 (≈ 0.256 µM) | 0.78 (≈ 0.999 µM) | 0.2 (≈ 0.256 µM) | > 100 | 0.78 (≈ 0.999 µM) | > 100 | > 100 | 0.78 (≈ 0.999 µM) | 0.1 (≈ 0.128 µM) | > 100 | 0.1 (≈ 0.128 µM) | 0.39 (≈ 0.499 µM) | 0.39 (≈ 0.499 µM) | 1.56 (≈ 2 µM) | > 100 | – | – | – | –
C=C1CC(C)OC(OCC2/C=C(C)/C=C/C(=O)C(C)CC(C)C(OC3OC(C)C(O)C(N(C)C)C3O)C(C)C(OC(=O)CC)CC(=O)OC2CC)C1OC (stereo not shown) [Compound 5, 4"-deoxy-3"-demethoxy-3"-methylene-3-0-propionyl-19-deformyldesmycosin] | 0.2 (≈ 0.261 µM) | 0.78 (≈ 1.02 µM) | 0.2 (≈ 0.261 µM) | > 100 | 1.56 (≈ 2.04 µM) | > 100 | 100 (≈ 131 µM) | 0.78 (≈ 1.02 µM) | ≤ 0.05 | > 100 | 0.2 (≈ 0.261 µM) | 0.39 (≈ 0.509 µM) | 0.78 (≈ 1.02 µM) | 0.78 (≈ 1.02 µM) | > 100 | – | – | – | –
C=C1CC(C)OC(OCC2/C=C(C)/C=C/C(=O)C(C)CC(C)C(OC3OC(C)CC(N(C)C)C3O)C(C)C(O)CC(=O)OC2CC)C1OC (stereo not shown) [Compound 4, 4',4"-di-deoxy-3"-demethoxy-3"-methylene-19-deformyldesmycosin] | ≤ 0.05 | 0.2 (≈ 0.288 µM) | ≤ 0.05 | > 100 | 0.39 (≈ 0.562 µM) | 100 (≈ 144 µM) | 3.13 (≈ 4.51 µM) | 0.1 (≈ 0.144 µM) | 0.1 (≈ 0.144 µM) | > 100 | ≤ 0.05 | 0.1 (≈ 0.144 µM) | 0.2 (≈ 0.288 µM) | 0.39 (≈ 0.562 µM) | > 100 | 0.78 (≈ 1.12 µM) | – | – | –
CCC1OC(=O)CC(O)C(C)C(OC2OC(C)C(O)C(N(C)C)C2O)C(C)CC(C)C(=O)/C=C/C(C)=C/C1COC1OC(C)CC(=O)C1OC (stereo not shown) [Compound 1, 4"-deoxy-3"-demethoxy-3"-oxo-19-deformyldesmycosin] | 0.2 (≈ 0.281 µM) | 0.39 (≈ 0.548 µM) | 0.39 (≈ 0.548 µM) | > 100 | 1.56 (≈ 2.19 µM) | > 100 | 50 (≈ 70.2 µM) | 0.2 (≈ 0.281 µM) | 0.1 (≈ 0.14 µM) | > 100 | 0.1 (≈ 0.14 µM) | 0.39 (≈ 0.548 µM) | 0.39 (≈ 0.548 µM) | 0.78 (≈ 1.1 µM) | > 100 | 1.56 (≈ 2.19 µM) | – | – | –
CCC1OC(=O)CC(O)C(C)C(OC2OC(C)CC(N(C)C)C2O)C(C)CC(C)C(=O)/C=C/C(C)=C/C1COC1OC(C)C=C(OC)C1OC (stereo not shown) [Compound 2, 4',4"-dideoxy-3",4"-di-dehydro-19-deformyldesmycosin] | ≤ 0.05 | 0.2 (≈ 0.282 µM) | 0.39 (≈ 0.549 µM) | > 100 | 1.56 (≈ 2.2 µM) | > 100 | > 100 | 0.2 (≈ 0.282 µM) | 0.1 (≈ 0.141 µM) | > 100 | 0.2 (≈ 0.282 µM) | 0.2 (≈ 0.282 µM) | 0.2 (≈ 0.282 µM) | 0.39 (≈ 0.549 µM) | > 100 | 6.25 (≈ 8.8 µM) | – | – | –
C=C1CC(C)OC(OCC2/C=C(C)/C=C/C(=O)C(C)CC(C)C(OC3OC(C)C(O)C(N(C)C)C3O)C(C)C(O)CC(=O)OC2CC)C1OC (stereo not shown) [Compound 3, 4"-deoxy-3"-demethoxy-3"-methylene-19-deformyldesmycosin] | 0.1 (≈ 0.141 µM) | 0.39 (≈ 0.549 µM) | 0.1 (≈ 0.141 µM) | > 100 | 0.78 (≈ 1.1 µM) | > 100 | 50 (≈ 70.4 µM) | 0.78 (≈ 1.1 µM) | 0.1 (≈ 0.141 µM) | > 100 | ≤ 0.05 | 0.39 (≈ 0.549 µM) | 0.39 (≈ 0.549 µM) | 1.56 (≈ 2.2 µM) | > 100 | – | – | – | –
CCC1OC(=O)CC(O)C(C)C(OC2OC(C)C(O)C(N(C)C)C2O)C(CC=O)CC(C)C(=O)/C=C/C(C)=C/C1COC1OC(C)C(O)C(OC)C1OC (stereo not shown) [Des, Desmycosin (4'-demycarosyltylosin), reference compound] | 0.2 (≈ 0.259 µM) | 1.56 (≈ 2.02 µM) | 0.2 (≈ 0.259 µM) | 100 (≈ 130 µM) | 0.78 (≈ 1.01 µM) | > 100 | > 100 | 0.1 (≈ 0.13 µM) | 0.78 (≈ 1.01 µM) | > 100 | 0.1 (≈ 0.13 µM) | 0.78 (≈ 1.01 µM) | – | – | > 100 | – | 1.56 (≈ 2.02 µM) | 1.56 (≈ 2.02 µM) | 1.56 (≈ 2.02 µM)

Reference: patent US4868290A, “4'-Deoxy-3"-demethoxy-3"-methylenedesmycosin derivatives and synthetic intermediates thereof” (Toyo Jozo Kabushiki Kaisha, priority 1987, dated 1989)
